Test results from the NIST ThermoML archive (doi:10.1016/j.jct.2019.02.028).

Experiment: xn = mol fraction of the nth substance listed
Conditions: Gas, Burnett expansion method

C=C(F)C(F)(F)F [2,3,3,3-tetrafluoro-1-propene] + FCF
Conditions	mass density [kg/m3]
373.17 K, 4066.8 kPa, x2 = 0.259	238.02
373.17 K, 4925.9 kPa, x2 = 0.874	143.64
373.18 K, 619.83 kPa, x2 = 0.259	20.68
373.18 K, 900.76 kPa, x2 = 0.449	26.92
373.18 K, 906.18 kPa, x2 = 0.259	31.05
373.18 K, 916.21 kPa, x2 = 0.874	18.76
373.18 K, 1093.4 kPa, x2 = 0.119	41.92
373.18 K, 1339 kPa, x2 = 0.874	28.18
373.18 K, 1863.1 kPa, x2 = 0.449	60.74
373.18 K, 2517.6 kPa, x2 = 0.259	105.24
373.18 K, 2728.4 kPa, x2 = 0.874	63.56
373.18 K, 3301.3 kPa, x2 = 0.259	158.31
373.19 K, 755.34 kPa, x2 = 0.119	27.91
373.19 K, 1931.1 kPa, x2 = 0.874	42.32
373.19 K, 2828.2 kPa, x2 = 0.119	142.15
373.2 K, 624.61 kPa, x2 = 0.874	12.49
373.2 K, 3505 kPa, x2 = 0.119	213.51
373.2 K, 4006.2 kPa, x2 = 0.119	320.47
373.2 K, 4661.9 kPa, x2 = 0.259	359.6
373.21 K, 1306.4 kPa, x2 = 0.259	46.64
378.05 K, 2079.9 kPa, x2 = 0.698	53.99
378.06 K, 1451.7 kPa, x2 = 0.698	35.94
378.07 K, 5426.1 kPa, x2 = 0.449	308.92
378.08 K, 622.36 kPa, x2 = 0.449	17.91
378.08 K, 2782.2 kPa, x2 = 0.874	63.55
378.08 K, 2911.8 kPa, x2 = 0.698	81.09
378.08 K, 3552.8 kPa, x2 = 0.449	136.97
378.08 K, 4525.2 kPa, x2 = 0.449	205.67
378.09 K, 1328.7 kPa, x2 = 0.449	40.42
378.09 K, 1878.5 kPa, x2 = 0.259	70.04
378.09 K, 2649.2 kPa, x2 = 0.449	91.19
378.09 K, 3936.7 kPa, x2 = 0.698	121.78
378.09 K, 4937.5 kPa, x2 = 0.259	358.03
378.09 K, 5074.6 kPa, x2 = 0.698	182.93
378.1 K, 678.04 kPa, x2 = 0.698	15.93
378.1 K, 920.5 kPa, x2 = 0.259	31.05
378.1 K, 997.84 kPa, x2 = 0.698	23.93
378.1 K, 1582.4 kPa, x2 = 0.119	62.96
378.1 K, 1897.6 kPa, x2 = 0.449	60.71
378.1 K, 2190.4 kPa, x2 = 0.119	94.57
378.1 K, 3832.4 kPa, x2 = 0.874	95.49
378.1 K, 4232.9 kPa, x2 = 0.259	237.67
378.1 K, 5071.5 kPa, x2 = 0.874	143.48
378.11 K, 629.16 kPa, x2 = 0.259	20.67
378.11 K, 767.1 kPa, x2 = 0.119	27.9
378.11 K, 914.69 kPa, x2 = 0.449	26.91
378.11 K, 1360.2 kPa, x2 = 0.874	28.17
378.11 K, 1964.7 kPa, x2 = 0.874	42.31
378.11 K, 2577.3 kPa, x2 = 0.259	105.22
378.11 K, 2909.1 kPa, x2 = 0.119	142.06
378.12 K, 633.28 kPa, x2 = 0.874	12.49
378.12 K, 929.88 kPa, x2 = 0.874	18.75
378.12 K, 1329.1 kPa, x2 = 0.259	46.64
378.12 K, 3399.6 kPa, x2 = 0.259	158.16
378.12 K, 3642.1 kPa, x2 = 0.119	213.38
378.12 K, 4237.1 kPa, x2 = 0.119	320.38
378.13 K, 1112 kPa, x2 = 0.119	41.91
382.98 K, 1475.1 kPa, x2 = 0.698	35.93
382.98 K, 2117.2 kPa, x2 = 0.698	53.97
382.99 K, 631.25 kPa, x2 = 0.449	17.91
383 K, 1350.2 kPa, x2 = 0.449	40.4
